Consider two compounds from BindingDB's records for doi:10.1021/jm070645a (Rockefeller University, 2007).

The experiment deals with Mitogen-activated protein kinase 1 (Homo sapiens, UniProt P28482). Description: Radiological Kinase Inhibition Assay. The note with it: pH 7.5; 22 °C. Here is the method:
Kinase activity was assayed for autophosphorylation and phosphorylation of MBP with radio-labeled gamma-32P. IC50 values were calculated from binding curves using LSW Data Analysis Tool Box version 1.1.1 in MicroSoft Excel.

Chain of Mitogen-activated protein kinase 1 (P28482 whole entry): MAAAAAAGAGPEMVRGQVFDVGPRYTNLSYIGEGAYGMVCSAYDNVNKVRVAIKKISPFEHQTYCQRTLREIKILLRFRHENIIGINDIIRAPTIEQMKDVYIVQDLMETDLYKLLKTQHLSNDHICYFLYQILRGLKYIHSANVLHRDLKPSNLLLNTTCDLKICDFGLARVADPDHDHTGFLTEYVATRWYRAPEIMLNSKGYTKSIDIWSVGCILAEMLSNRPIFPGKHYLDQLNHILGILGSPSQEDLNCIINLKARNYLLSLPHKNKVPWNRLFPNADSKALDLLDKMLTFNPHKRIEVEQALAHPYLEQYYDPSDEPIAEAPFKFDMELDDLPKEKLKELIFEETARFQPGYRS

Usually IC50 stands for the point on the concentration scale where inhibition reaches its midpoint. A low value points to greater potency in that assay. `O=C1c2ccccc2C(=O)c2cc(S(=O)(=O)Nc3cccc([N+](=O)[O-])c3)ccc21` [N-(3-nitrophenyl)-9,10-dioxo-9,10-dihydroanthracene-2-sulfonamide]: the IC50 is above 200 µM.

For `O=C1NC(=O)C(=Cc2ccc(Sc3ccc(Cl)cc3)c([N+](=O)[O-])c2)C(=O)N1` [5-({4-[(4-chlorophenyl)sulfanyl]-3-nitrophenyl}methylidene)pyrimidine-2,4,6(1H,3H,5H)-trione], the IC50 was found to be 53 µM.
